# Results from article PMC5428058, “Local delivery of novel MRTF/SRF inhibitors prevents scar tissue formation in a preclinical model of fibrosis” (Scientific Reports, 2017).
# Assays:
# [1] = system: New Zealand white rabbits; test: rabbit glaucoma filtration surgery model of scar tissue formation, clinical end-points; format: in vivo; settings: for increase in IOP survival: 100 μM subconjunctival, IOP remains below baseline; for increase in long-term success of surgery (bleb survival) compared to vehicle control: 100 μl of 100 μM subconjunctival, day 30; for mean day of bleb failure: CCG compounds 100 μM subconjunctival, MMC 0.2 mg/ml intraoperative, vehicle 14 days; for intraocular pressure (IOP): versus vehicle control or baseline
# Source text: 24 female New Zealand white rabbits (2–2.4 kg, 12—14 weeks, Highgate, UK) underwent experimental glaucoma filtration surgery to the left eye under general anaesthesia, [28]. A superonasal fornix-based conjunctival flap was raised behind the limbus and a micro-vitreoretinal blade (20 gauge, 0.90 mm, Surgistar USA) was used to make a partial thickness scleral tunnel to the corneal stroma. A 22 gauge, 25 mm intravenous cannula was passed through the tunnel and the needle was removed once it was visible in the cornea. The cannula was advanced into the mid-pupillary area, trimmed at its scleral edge and fixed to the scleral surface using a 10–0 nylon suture (Alcon, USA). The conjunctival incision was closed using two interrupted 10–0 nylon sutures. In a randomised, prospective, single-masked observer study, the rabbits received either intraoperative 0.2 mg/ml mitomycin-C (MMC) [N = 6], or postoperative subconjunctival injections (100 μl) of 100 μM CCG-203971 [N = 6] or 100 μM CCG-222740 [N = 6] or vehicle control [N = 6] daily for the first nine days followed by twice weekly for three weeks, [33]. CCG-222740 and CCG-203971 were dissolved in 100% DMSO (Sigma, UK) at 10 mM and then diluted to 100 μM with sterile PBS. The same volume of DMSO was diluted with PBS for the vehicle control. For the MMC-treated group, a small corneal light shield sponge was soaked in 1 ml of 0.2 mg/ml MMC and applied over the conjunctiva for 3 minutes, and the area was then thoroughly washed with 50 ml of physiologic balanced salt solution (Alcon Laboratories, Inc., Fort Worth, TX). All the postoperative subconjunctival injections were given at the same site by a single-masked researcher.
# The animals were evaluated twice weekly by a single-masked researcher. Bleb width and length were measured using calipers and intraocular pressures (IOP) were measured using a tonovet (Icare). The primary efficacy end-point was bleb survival as this is indicative of the long-term opening of the filtration pathway created during surgery. Bleb failure was defined as the appearance of a flat, scarred, and vascularised bleb associated with a deep anterior chamber. IOP survival, defined as when the intraocular pressure remains below the baseline IOP measurement, and bleb area were used as secondary end-points. Conjunctival vascularity was graded on a scale of 0 to 3 (0: avascular, 1: normal, 2: hyperaemic, 3: very hyperaemic).
# [2] = system: αSMA-positive human conjunctival fibroblasts; test: alpha smooth muscle actin staining; format: cell-based; settings: 48 hours, control 24.5%
# Description: Human conjunctival fibroblasts were plated on 20 mm glass coverslips at 1 × 10^5 cells/well in 6-well plates (Falcon, Fisher Scientific). The next day, the fibroblasts were treated for 48 hours with 10 or 25 μM of CCG-222740 or CCG-203971 or 0.1% DMSO control in DMEM +10% FCS. The samples were fixed in 4% paraformaldehyde for 10 minutes, washed three times in PBS, and permeabilised in PBS 0.2% TX-100 (Triton X-100, Sigma) for 20 minutes. The samples were blocked with 5% fetal calf serum/5% bovine serum albumin (Sigma) for 1 hour. The samples were incubated overnight with the Cy3-labelled alpha smooth muscle actin antibody (1:1000, Sigma) in a wet chamber at 4 °C in the dark. The next day, the samples were washed twice in PBS 0.1% TX-100 and incubated with phalloidin (1:200) and DAPI (1:2000) for 1 hour at room temperature. The samples were then mounted on slides and imaged using an Upright780 Zeiss LSM confocal microscope. The proportion of fibroblasts with prominent αSMA-positive stress fibres was quantified visually from three random fields of view per treatment group in 3 independent experiments.
# [3] = system: human conjunctival fibroblasts; test: fibroblast-populated collagen contraction assay (human); format: cell-based; settings: for IC50: human conjunctival fibroblasts in collagen type I matrix, 7 days
# Description: We screened two candidate MRTF/SRF pathway inhibitors, CCG-222740 and CCG-203971, using detached three-dimensional fibroblast-populated collagen gels[56], [57]. Human or rabbit conjunctival fibroblasts were seeded in a collagen Type I matrix (First Link UK Ltd, Birmingham, UK) at a concentration of 0.7 × 10^4 cells/ml. The fibroblast-populated collagen gel mixture was cast into the wells of MatTek dishes (MatTek Corp, MI, USA). The gels were detached from the edges of the well and 2 ml of growth medium were added to each well with 5, 25, 50, 75, or 100 μM of CCG-222740 or CCG-203971 or 0.1% DMSO control. Digital photographs were obtained daily and lattice areas were measured using Image J software (http://rsb.info.nih.gov/ij/). The gel size at day 7 was assessed as a percentage of lattice area on day 0. Each experiment was performed as triplicate gels per condition and the experiment was repeated on three separate days.
# [4] = system: rabbit conjunctival tissue; test: histologic analysis of bleb tissue after glaucoma filtration surgery; format: in vivo; settings: for expression of αSMA by cells in tissue sections / scar tissue formation (picrosirius red) compared to vehicle control: day 30; for newly laid extracellular matrix and collagen (Gomori's trichrome): day 30, vehicle versus treated
# Description: We further evaluated the histologic differences after local delivery of CCG-222740 and CCG-203971. The white filtration tube was used as landmark and the plane of sectioning of the bleb area was performed 2 mm from the tube (black line in Fig. 5). Grading was performed using a modified system originally described by Shah et al.[34]. The left operated eyes were compared to the right non-operated eyes that were used as controls for the appearance of normal conjunctival tissue. The sections were graded using a scale of −4 to +4 (0 = same as control eye; 1 = 1–25% difference from control eye; 2 = 26–50% difference from control eye; 3 = 51–75% difference from control eye; 4 = >75% difference from control eye; prefix+, more than; prefix−, less than). Analysis was performed using the mean results in each treatment group.
# The animals were sacrificed on day 30 and both eyes were enucleated. The eyes were fixed in formalin, embedded in paraffin, and sequential 4 μm tissue sections were cut.
# The sections were stained with hematoxylin and eosin (for cellularity and inflammatory cells), Gomori’s trichrome (for collagen), picrosirius red (for degree of fibrosis and collagen deposition), and alpha-smooth muscle actin (αSMA) using a primary monoclonal mouse anti-human αSMA antibody (Clone 1A4; Dako, High Wycombe, UK) and a biotinylated secondary antibody (rabbit anti-mouse; Dako). All the left operated eyes were compared to the right non-operated eyes that were used as controls for the appearance of normal conjunctival tissue. The sections were graded using a modified grading system originally described by Shah et al.[34], with a scale of −4 to +4 according to the staining intensity. Grades were defined as 0 = same as control eye; 1 = 1–25% difference from control eye; 2 = 26–50% difference from control eye; 3 = 51–75% difference from control eye; 4 = >75% difference from control eye (prefix+, more than; prefix −, less than).
Compound,bleb area compared to vehicle control [1],increase in IOP survival [1] [%],increase in long-term success of surgery (bleb survival) compared to vehicle control [1] [%],mean day of bleb failure [1] [days],intraocular pressure (IOP) [1],percentage of αSMA-positive fibroblasts ([2]; 10 μM) [%],percentage of αSMA-positive fibroblasts ([2]; 25 μM) [%],potency in collagen contraction relative to CCG-203971 ([3]; human conjunctival fibroblasts),IC50 [3] [µM],expression of αSMA by cells in tissue sections [4],scar tissue formation (picrosirius red) compared to vehicle control [4],newly laid extracellular matrix and collagen (Gomori's trichrome) [4]
O=C(Nc1ccc(Cl)cc1)C1CN(C(=O)c2cccc(-c3ccco3)c2)CC(F)(F)C1 (centres unmarked) [CCG-222740],significantly larger bleb area,67,67,28.5,remained consistently lower than baseline measurements,9.0,2.2,five times more potent than CCG-203971,5,significantly decreased the expression of αSMA,significant decrease in scar tissue formation,present to a greater degree in the vehicle-treated group compared to
O=C(Nc1ccc(Cl)cc1)C1CCCN(C(=O)c2cccc(-c3ccco3)c2)C1 (centres unmarked) [CCG-203971],no statistically significant differences,33,33,22.5,remained consistently lower than baseline measurements,17.0,8.6,,25,significantly decreased the expression of αSMA,significant decrease in scar tissue formation,present to a greater degree in the vehicle-treated group compared to
